Data on one molecule can be found in patent US8410116B2, “Bis(styryl)pyrimidine or bis(styryl)benzene compounds, pharmaceutically acceptable salts thereof, preparation method thereof, and pharmaceutical composition for prevention or treatment of diseases featuring amyloids comprising the same as an active ingredient” (Korea Institute of Science and Technology, priority 2009, dated 2013).

Structures are written as SMILES.

For series [1], the system named is beta amyloid (1-42) injected mice. The series is described as follows: Cognitive performance task, acute Alzheimer's disease model. In kind it is in vivo. The arrangement: Cognition % of control: concentration or dose not given beside the values. As to the method:
(§1) Mice 4-5 weeks old, each weighing 20˜25 g, were divided into groups of six. Intracerebroventricular injection was performed with a 50 μl Hamilton microsyringe fitted with a disposable 26-gauge needle as described by Laursen and Belknap (Laursen & Belknap, J. Pharmacol. Methods. 1986, 16, 355). It was inserted 2.4 mm deep into the bregma. All samples were administered to groups of 10 via oral routes or food pellets. After the intracerebroventricular injection, the compounds of the present invention were administered for 2 days to the mice which were then subjected to the Y-maze test on Day 2, the cognition test on Days 2 and 3, the passive avoidance test on Days 3 and 4, and the water maze test on Days 3 to 7. All data were averages of 6 measurements (mice).
(§2) For the cognitive performance task, two identical substances were respectively placed 5 cm apart from two corners and the time it took for a mouse to investigate the given and new substances was measured. Investigation was defined as the condition in which a mouse sniffed with the head directing toward the substance within a diameter of 2 cm or touched the substance.

The test system is the same in series [2]. The series is described as follows: Behavior tests with acute AD model taken together (Y-maze, cognitive performance, passive avoidance). In kind it is in vivo. On the procedure: as §1
(§3) Short-term memory was assessed by spontaneous alternation behavior in the Y-maze task. Spontaneous alternation behavior is considered to reflect spatial working memory, which is a form of short-term memory. A mouse was placed in one arm of a Y-maze and allowed to freely pass the three arms for 8 min. Spontaneous alternation behavior was defined as successive entries into the three arms. Percentage spontaneous alternation was calculated as the ratio of actual to possible alternations […], multiplied by 100.
as §2
(§4) A passive avoidance test was performed as described in the literature (Song et al. J. Neurochem., 1998, 71, 875). Used was a passive avoidance box which was divided into two compartments: a lighted one and a dark one, separated by an automatic guillotine door. For training, mice were placed in the lighted compartment and electrically shocked with 0.25 mA for 1 sec whenever they entered the darkened compartment. 24 hours after training, the mice were placed in the lighted compartment and measured for latency time before entering the darkened compartment.

In series [3] the test system is beta amyloid (1-40). Briefly: ELISA for beta amyloid (1-40) in cerebra of transgenic mice. It counts as in vivo. As to conditions: 11 months old transgenic mice, versus control. On the procedure: (§5) In order to examine whether this effect resulted from inhibitory activity against the deposition of beta amyloid or from a decrease in the level of beta amyloid, the cerebra of the transgenic mice were immunohistochemically analyzed. In this regard, after being removed from the transgenic mice which were 11 months old upon completion of the behavior test, the right cerebral hemispheres were measured for amyloid plaque levels in the cerebral cortex and hippocampus using an immunostaining or ELISA (Enzyme-linked immunosorbent assay) method.
(§6) Amyloid plaques were stained with Congo red and counted. […] FIG. 4D gives neuronal cell count data, showing a larger crowd in the group treated with the compound of Example 1.

Series [4] concerns neurons. Briefly: Neuronal cell count in cerebra of transgenic mice. It counts as in vivo. As to conditions: 11 months old transgenic mice, versus control. As to the method:
as §5, §6

Series [5] has as its system beta amyloid (1-42) injected mice. The series is described as follows: Passive avoidance test, acute Alzheimer's disease model. It counts as in vivo. On the set-up: Passive Avoidance % of control: concentration or dose not given beside the values. On the procedure:
as §1, §4

Series [6] relates to HT-22 cells incubated with beta amyloid (Aβ25-35). Briefly: Alleviating effect on beta amyloid toxicity in HT-22 cells (MTT). It counts as cell-based, murine. As to conditions: Mus musculus, compound pre-incubated 1 hr, then 25 μM beta amyloid (Aβ25-35) for 18 hrs, Aβ25-35 line = toxin alone, read-out: Cell Survival (%). On the procedure:
(§7) The murine hippocampal neuronal cell line HT-22 was incubated at 37° C. in DMEM (Dulbecco's Modified Eagle's Medium) supplemented with 10% FBS (fetal bovine serum) and 1% penicillin/streptomycin in a 5% CO2 incubator. Before testing, HT-22 cells were seeded at a density of 5×10^3 cells/well onto 96-well plates containing serum-free DMEM and incubated for 1 hr. Afterwards, each of the compounds of Examples 1 to 27 was added at a concentration of 25 μM to each well before incubation for 18 hrs. 5 mg/ml MTT (3-(4,5-dimethyl-2-thiozolyl)-2,5-diphenyl-2H-tetrazolium bromide) solution was added in an amount of 15 μl per well and incubated for 4 hrs. A solubilization solution (10% SDS, 50% dimethylformamide, pH 4.7) was added in an amount of 100 μl to each well, followed by incubation for 18 hrs. Absorbance at 570 nm/630 nm was read on a microplate reader.
The following experiment was performed in order to examine the ability of the compounds of the Examples in accordance with the present invention to alleviate beta amyloid toxicity. HT-22 cells were cultured and incubated with the compounds of Examples 1 to 27 for 1 hr in the same manner as in Example 2. Cell necrosis was induced by beta amyloid toxicity. For this, the cells were incubated with 25 μM of beta amyloid (Aβ25-35) for 18 hrs. Subsequently, a 5 mg/ml MTT solution was added in an amount of 15 μl to each well, followed by incubation for 4 hrs. Then, the cells were again incubated for 18 hrs with 100 μl/well of the solubilization solution. Absorbance at 570 nm/630 nm was read on a microplate reader.

Series [7] deals with HT-22 cells. The series is described as follows: Cytotoxicity in HT-22 cell (MTT). In kind it is cell-based, murine. As to conditions: compound 25 μM, 18 hrs. On the procedure:
The following experiment was performed with HT-22 cells in order to examine the cytotoxicity of the compounds of the Examples in accordance with the present invention.
as §7

Series [8] addresses beta amyloid (1-42) (Homo sapiens, UniProt P05067). The series is described as follows: Inhibitory activity against beta amyloid fibril formation (ThT fluorescence). As to conditions: compound 10 μM, beta amyloid (1-42) 25 μM, 1 hr room temperature, beta amyloid alone (control) = 100. In kind it is biochemical. As to the method: The compounds of the present invention were assayed for inhibitory activity against the formation of beta amyloid fibrils as a function of ThT fluorescence intensity as follows. Beta amyloid (1-42) and each of the compounds of Examples 1 to 27 were dissolved in DMSO and diluted with PBS (phosphate-buffered saline, pH 7.4). The final concentrations of beta amyloid (1-42) (control) and each of the compounds of Examples 1 to 27 were set at 25 μM and 10 μM, respectively. The dilutions were incubated at room temperature for 1 hr before a solution of thioflavin T (ThT, 5 μM, pH 8.5) in glycin-NaOH buffer was added thereto. Fluorescence was measured at 450 nm for excitation (slit 10 nm) and […] for emission (slit 10 nm) on 96-well microplates using a multilabel fluorescence counter.

The test system of series [9] is amyloid plaques. Briefly: Amyloid plaque counts (Congo red) in cerebra of transgenic mice. As to conditions: cerebral cortex and hippocampus, 11 months old transgenic mice, versus control. In kind it is in vivo. On the procedure:
as §5, §6

The subject of series [10] is double transgenic mice with mutations in both APP and presenilin 1. Briefly: Y-maze task and cognitive performance tests in transgenic mice. In kind it is in vivo. As to conditions: food pellets (3 mg/pellet) for 2 months, 10 month old transgenic mice. On the procedure:
(§8) Double transgenic mice with mutations in both APP and presenilin 1 were used for the tests. The double transgenic mice, each weighing 26-39 g, were eight months old. They were divided into groups of 10 and administered for 2 to 3 months with the compound of Example 1 through food pellets (3 mg/pellet) before conducting the behavior tests.
After administration of the compound of Example 1 for 2 months (for 10 month old mice), the mice were tested for learning and memory through the Y-maze task and cognitive performance tests.

The test system is the same in series [11]. Briefly: Context fear conditioning in transgenic mice. It counts as in vivo. As to the method:
as §8
A memory test was performed in context fear conditioning. Five trials of tone-shock pairing of CS-US (conditioned stimulus-unconditioned stimulus) were given to mice. On the next day, the mice were left in the stimulated context under no stimulus conditions and observed for freezing. […] During the test, there was no difference in average body weight between the two groups.

Series [12] concerns beta amyloid (1-42) injected mice. The series is described as follows: Y-maze task, acute Alzheimer's disease model. In kind it is in vivo. As to conditions: mice i.c.v. injected with beta amyloid (1-42), compounds administered for 2 days, test on Day 2. As to the method:
as §1, §3

Series [13] shares this test system. The series is described as follows: Water maze test, acute Alzheimer's disease model. It counts as in vivo. As to conditions: mice injected with beta amyloid (1-42), Days 3 to 7. As to the method: as §1
In a water maze test, a mouse, when released from a randomly selected quadrant on each trial, was allowed to swim around the pool in search of an exit while the time taken to reach the platform (latency) was recorded.

The test system of series [14] is beta amyloid (1-42). Briefly: ELISA for beta amyloid (1-42) in cerebra of transgenic mice. It counts as in vivo. As to conditions: 11 months old transgenic mice, versus control. As to the method: as §5, §6

beta amyloid (1-42) (Homo sapiens, UniProt P05067), sequence (P05067 672-713 limits assumed): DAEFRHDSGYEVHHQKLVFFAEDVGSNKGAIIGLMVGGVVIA

For the molecule `COc1ccc(/C=C/c2cc(/C=C/c3ccc(OC)c(O)c3)ncn2)cc1O` [Ex. 1, (E,E)-4,6-Bis(3′-hydroxy-4′-methoxystyryl)pyrimidine], the “Cognition Preference (investigation time for new matter/total investigation time)” value in series [1] (mice i.c.v. injected with beta amyloid (1-42), test on Days 2 and 3) is 0.59 ± 0.03. The “Cognition % of control” value in series [1] (preference relative to control mice) came to 92%. Also, the “Learning and memory improvement, dose dependence, FIG. 2” value in [2] (50, 100, 200 mg/kg p.o., Y-maze, cognitive performance, passive avoidance) is given as “dose-dependent manner”. For the same molecule, the “Memory and learning of beta amyloid (1-42) injected mice (in words)” value in series [2] (data of Table 6, with statistical significance) is reported as “increased memory”. The “Level of beta amyloid (1-40), ELISA, FIG. 4B” value in [3] is listed as “decreasing pattern”. The “Neuronal cell count, FIG. 4D” value in series [4] is given as “larger crowd”. In addition, in [5] (compared to beta amyloid (1-42) injected mice, % of control), the “Improvement in passive avoidance performance” value was “highest improvement”. In addition, the “Passive Avoidance % of control” value in series [5] (latency relative to control mice) is given as 80.9%. In series [5] (mice i.c.v. injected with beta amyloid (1-42), test on Days 3 and 4, 24 hours after training), the “Passive Avoidance Latency” value came to 144.2 s. Also, the viability at 25 µM in [6] amounted to 91.8 ± 8.8%. Also, the “Cell Survival (%)” value in series [7] was 135.6 ± 6.1%. For the same molecule, the remaining activity at 10 µM in series [8] was found to be 19.1 ± 0.6%. The “Counts of amyloid plaques stained with Congo red, FIG. 4A” value in [9] is “smaller”. In addition, in series [10], the “Learning and memory in Y-maze and cognitive performance, FIGS. 3A and 3B” value is given as “memory impairment was alleviated”. Besides, the Average body weight entry in [11] (transgenic mice during the test, treated versus control group) is “no difference”. In series [11] (transgenic mice, compared to control), the “Freezing in context fear conditioning, FIG. 3C” value is recorded as “longer time freezing”. In addition, the “Y-Maze Spontaneous Alternation (%)” value in series [12] was 72.2%. The “Spatial learning ability in water maze (latency over sessions), FIG. 1” value in series [13] is on record as “recover spatial learning ability”. For the same molecule, the “Level of beta amyloid (1-42), ELISA, FIG. 4C” value in [14] is recorded as “decreasing pattern”.
